Assay results: patent US10894777B2, “TG2 inhibitor piperazine compounds and uses thereof” (UNIVERSITY OF OTTAWA, priority 2016, dated 2021)

Assays:
TG2 = biological target: T1, TG2 (Homo sapiens, UniProt P21980); assay: In situ TG2 transamidase activity assay (fluorescein cadaverine incorporation), SCC-13 cells; assay type: cell-based; set-up: endogenous in cells; host or cells: SCC-13; conditions: for FC incorporation (TG2 transamidase activity): 20 μM 30 min, then A23187 90 min
T1 sequence (P21980 1-687): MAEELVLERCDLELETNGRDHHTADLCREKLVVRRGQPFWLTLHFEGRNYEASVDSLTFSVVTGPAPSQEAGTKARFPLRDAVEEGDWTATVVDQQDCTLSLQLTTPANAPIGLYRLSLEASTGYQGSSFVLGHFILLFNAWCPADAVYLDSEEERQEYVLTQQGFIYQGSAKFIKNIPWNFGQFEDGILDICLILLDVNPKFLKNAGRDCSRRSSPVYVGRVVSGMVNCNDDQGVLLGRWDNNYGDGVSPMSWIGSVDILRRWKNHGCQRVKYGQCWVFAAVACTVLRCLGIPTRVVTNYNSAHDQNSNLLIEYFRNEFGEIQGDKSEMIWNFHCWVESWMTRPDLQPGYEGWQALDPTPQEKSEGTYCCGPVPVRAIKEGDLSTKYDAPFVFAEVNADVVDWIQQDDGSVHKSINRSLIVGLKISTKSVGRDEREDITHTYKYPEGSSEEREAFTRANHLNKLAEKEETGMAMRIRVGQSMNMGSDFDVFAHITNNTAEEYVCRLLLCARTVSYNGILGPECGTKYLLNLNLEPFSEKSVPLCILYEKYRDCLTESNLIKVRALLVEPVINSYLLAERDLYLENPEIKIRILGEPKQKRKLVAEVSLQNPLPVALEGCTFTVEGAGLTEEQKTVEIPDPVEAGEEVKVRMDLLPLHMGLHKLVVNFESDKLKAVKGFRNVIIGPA
Experimental: Insitu TG2 activity assay. Cells (40,000) were plated in 24-well attachment dishes in spheroid media and grown until 50% confluent. Fluorescein cadaverine (FC) was added in 2 mL of serum-free medium at a final concentration of 20 μM and incubated for 4 hours. The wells were washed twice with serum-free spheroid medium, and then 2 mL of fresh serum-free medium was added containing 0-20 μM NC9. After 30 min, the wells were supplemented with 10 μM A23187. Cells were incubated for an additional 90 min and then washed three times with Ca^++/Mg^++-free HBSS, fixed with formalin, and washed with phosphate-buffered saline and imaged to detect fluorescein.
In situ TG2 transamidase activity assay. Cells (40,000) were plated in 24-well attachment dishes in spheroid media and grown until 50% confluent. FC was added in 2 ml of serum-free medium at a final concentration of 20 μM and incubated for 4 h. […] After 30 min, the wells were supplemented with 10 NM A23187, a calcium ionophore.

TS565 neurospheres = assay: Neurosphere growth, TS565 (proneural); assay type: cell-based, human; conditions: 25 μM, 2 weeks
Description: Neurosphere cultures. TS543, TS565 and TS676, which represent the mesenchymal, proneural and classical glioblastoma subtypes respectively, based on transcriptomic and genomic analysis, were obtained from C. Brennan through the Monoclonal Antibody Core Facility at Memorial Sloan Kettering Cancer Center (Brennan, C. et al., PLoS One 4(11):e7752, 2009; Pyonteck, S. M. et al., Nature Med. 19(10):1264-72, 2013; Rohle, D. et al., Science 340(6132):626-30, 2013) and maintained in NeuroCult™ NS-A Proliferation Kit (Human) (Stem Cell Technologies) according to manufacturer's instructions. (NeuroCult Medium was supplemented with 20 ng/mL FGF, 50 ng/mL EGF and 0.0002% Heparin). To prevent neurosphere attachment to the bottom of the cell culture plates, Poly 2-hydroxyethyl methacrylate (PHM) was used. 6-well plates were coated with 1 mL/well of 1% PHM in ethanol (w/v). The plates were air dried in a sterile environment overnight and washed once with PBS and they were kept in the fridge in a sterile environment until use. For passaging, neurospheres were triturated according to instructions and 5,000 cells were seeded in each well in 2 mL medium. For treatments with TG2 inhibitors, cells were inoculated in medium containing 25 μM TG2 inhibitor or DMSO control. 200 μL of medium containing the 25 μM TG2 inhibitor or DMSO was added every other day. At the end of 2 weeks, 20-50 random microscopic images were captured for each group. The average volume of each sphere image was determined using Image J by a person blinded for neurosphere lines and treatments and volumes were calculated from the area data and used for comparison.

[1] = test system: rat primary cortical neurons; assay: Neuronal viability by resazurin assay; assay type: cell-based; conditions: 24 h
Experimental: DMSO was used as a control. At the end of the treatment, neuronal viability was measured by resazurin assay. Results are shown as a percent of DMSO control (±SEM) (N=3).

HaCaT cells = assay: Matrigel invasion assay, HaCaT cells; assay type: cell-based, human; conditions: 20 μM, 24 h
[2] = test system: TG2 fusion protein mCer-TG2-YFP; assay: Fluorescence lifetime imaging (FLIM) of mCer-TG2-YFP conformation, SCC-13 cells; assay type: cell-based, human; conditions: NC9, VA4, VA5 0-20 μM 24 or 48 h; Cp4d 0-10 μM 48 h
Experimental: We monitored the impact of each inhibitor on intracellular TG2 structure using FLIM (Fluorescence Lifetime Imaging Microscopy). FLIM is a quantitative method of assessing fluorescence lifetime that measures energy transfer between donor and accept probes Fluorescence lifetime is measured in nanoseconds and a short lifetime correlates with close contact between probes (FIG. 29B). An advantage of this method is that fluorescent lifetimes are independent of probe concentration. In the present experiments, we expressed in cells a TG2 fusion protein in which the donor probe (mCER) is fused to the N-terminus and the acceptor probe (YFP) at the C-terminus (FIG. 29B). mCER and YFP comprise an ideal donor/acceptor pair; the donor probe is excited by laser illumination and energy transfer to the acceptor is monitored. The fluorescent lifetime is shorter when TG2 is in the closed conformation which brings mCER and YFP close together. SCC-13 cells were electroporated with empty vector, mCER-TG2 or mCER-TG2-YFP.
Fluorescence lifetime imaging. Fluorescence lifetime images were acquired using FLIM system (Alba 5 from ISS). […] Emission was observed through bandpass filter 480/35 nm (Chroma Technology) and detected by a photomultiplier H7422-40 (Hamamatsu). FLIM data were acquired using time-domain modality (SPC-830 TCSPC module from Becker and Hickl GmbH). […] To account for intensity heterogeneity within single intensity images, two to five consecutive scans were acquired and summed to build FLIM intensity image for lifetime analysis. […] FLIM data were analyzed using VistaVision Suite software (Vista v.213 from ISS). Lifetime images were generated by fitting data using single exponential intensity decay model. Intensity threshold for lifetime analysis was set of at least 3-fold above the intensity of dim cells and fitting procedure was performed for binned pixels at level of 3 (7×7 pixels). Lifetime distribution within image is represented with histogram showing pixel frequency of specific lifetime. The average lifetime values with standard deviations were calculated based on all processed pixels in lifetime image. FRET values were calculated according to the formula ET=1−(τDA/τD), where τD is the lifetime of donor (mCer-TG2) and τDA is the lifetime of donor-acceptor pair (mCer-TG2—YFP).

| SMILES | FC incorporation (TG2 transamidase activity) (TG2) | TG2 transamidase activity (FC incorporation) (TG2; 20 μM NC9, calcium ionophore) | sphere growth, TS565 (TS565 neurospheres) | neuronal viability / tolerability [1] | invasion through matrigel (HaCaT cells) | fluorescence lifetime of mCer-TG2-YFP [2] |
| --- | --- | --- | --- | --- | --- | --- |
| C=CC(=O)NCCCC[C@H](NC(=O)OCc1ccccc1)C(=O)NCCOCCOCCNS(=O)(=O)c1cccc2c(N(C)C)cccc12 [NC9] | drastically reduced | reduced | suppressed sphere growth | well tolerated up to 10 μM concentration | suppressed | markedly increased |
| C=CC(=O)NCCCC[C@H](NC(=O)OCc1ccccc1)C(=O)N1CCN(S(=O)(=O)c2cccc3c(N(C)C)cccc23)CC1 [VA4, (S)-benzyl(6-acrylamido-1-(4-((5-(dimethylamino)naphthalen-1-yl)sulfonyl)piperazin-1-yl)-1-oxohexan-2-yl)carbamate] | drastically reduced | – | suppressed sphere growth | well tolerated up to 10 μM concentration | suppressed | markedly increased |
| C=CC(=O)NCCCC[C@H](NC(=O)OCc1ccccc1)C(=O)N1CCN(C(=O)c2cc3ccc(O)cc3oc2=O)CC1 [VA5, (S)-Benzyl(6-acrylamido-1-(4-(7-hydroxy-2-oxo-2H-chromene-3-carbonyl)piperazin-1-yl)-1-oxohexan-2-yl)carbamate] | drastically reduced | – | only mildly suppressive | well tolerated up to 10 μM concentration | suppressed | markedly increased |
